In US20220168302A1, “SALTS OF A COMPOUND, CRYSTAL FORMS OF THE SALTS AND PREPARATION METHOD AND USE THEREOF” (Gan & Lee Pharmaceuticals Co., Ltd., priority 2019, published 2022):
Converted amounts (≈) assume the structure as drawn. Read-outs that look alike come from different tables or passages of the source.

Legend:
Assay type in all cases: physicochemical
[1] = Dynamic moisture adsorption (DVS) hygroscopicity test; conditions: for Hygroscopicity (moisture adsorption capacity): DVS, 25° C./80% RH; for Whether the crystal form has a change: XRPD before and after DVS test
Procedure: The moisture adsorption capacities of the representative salts and the free base of the above Examples and Comparative Examples were tested when the humidity reached 80% RH through a dynamic moisture adsorption (DVS) test at 25° C., so as to compare the hygroscopicities.
Experimental results: the test results are shown in Table 13, wherein, >15% means very hygroscopic, 2% to 15% means hygroscopic, 0.2% to 2% means slightly hygroscopic, and <0.2% means almost non-hygroscopic.

[2] = Solid-state stability test, one week, HPLC purity; conditions: for HPLC purity 1 week: open container; for HPLC purity, Initial purity: before storage
Procedure: Experimental method: appropriate amount of samples were respectively weighed and placed in open containers under the conditions of light illumination of 4500 lux, 25° C./60% RH and 40° C./75% RH to perform solid-state stability test evaluation for one week. One week later, the purities of the test samples were tested by HPLC to detect the change of purity. Three groups of parallel tests were set for each test condition.
High performance liquid chromatograms were collected on an Agilent 1100 HPLC.

[3] = Solubility test in water, FaSSIF and FeSSIF (24 h, 37° C., HPLC concentration); conditions: initial feeding amount 10 mg/ml; for solubility at 24 h: 37 °C, thermodynamic from solid
Procedure: Experimental method: the solubility test was carried out in three solvents including water, fasted state simulated intestinal fluid (FaSSIF) and fed state simulated intestinal fluid (FeSSIF), to evaluate the solubilities of the salts of the present invention.
In the experiment, the sample and the solvent were mixed in a centrifuge tube (the initial feeding amount was 10 mg/ml), then the centrifuge tube was sealed and fixed on a rotating disk with a rotation speed of 25 rpm, and sampling was performed after rotating and mixing for 24 h at 37° C. The turbid sample was subjected to centrifugal separation, and the filtered supernatant was measured for HPLC concentration. If the sample solution was clear, the concentration of the obtained solution was measured.

[4] = as above; conditions: stated in background
[5] = fasted state simulated intestinal fluid
[6] = fed state simulated intestinal fluid
[7] = FeSSIF, fessif, fed state simulated intestinal fluid, read-out: Solubility in FeSSIF
[8] = FaSSIF, fassif, fasted state simulated intestinal fluid, read-out: Solubility in FaSSIF
[9] = water, water, water, read-out: Solubility in water

SMILES	Hygroscopicity (moisture adsorption capacity) [1] [%]	Whether the crystal form has a change [1]	HPLC purity 1 week Relative to the initial purity ([2]; 25° C./60% RH) [%]	HPLC purity 1 week ([2]; 25° C./60% RH) [Area %]	HPLC purity 1 week Relative to the initial purity ([2]; 40° C./75% RH) [%]	HPLC purity 1 week ([2]; 40° C./75% RH) [Area %]	HPLC purity 1 week Relative to the initial purity ([2]; Light illumination 4500 lux) [%]	HPLC purity 1 week ([2]; Light illumination 4500 lux) [Area %]	HPLC purity, Initial purity [2] [Area %]	Solubility in FaSSIF [3, 5] [µg/mL]	Solubility in water ([3]; water) [µg/mL]	solubility at 24 h [3, 7] [µg/mL]	solubility at 24 h [3, 8] [µg/mL]	also measured
CC1=Nc2c(F)cc(-c3nc(Nc4ccc(C5CCN(C)CC5)cn4)ncc3F)cc2C12CCCC2 [Adipate crystal form A, Adipate of 5-fluoro-4-(7′-fluoro-2′-methylspiro[cyclopentane-1,3′-indol]-5′-yl)-N-(5-(1-methylpiperidin-4-yl)pyridin-2-yl)pyrimidine-2-amine]	0.22	No change	100.0	99.88	100.0	99.89	100.0	99.88	99.90	6800 (≈ 13.9 mM)	6500 (≈ 13.3 mM)			Whether the crystal form has a change ([1]; listed as adipate crystal form A): no change; HPLC purity 1 week Relative to the initial purity ([2]; 40° C./75% RH, listed as adipate crystal form A): 100%; HPLC purity 1 week Relative to the initial purity ([2]; Light illumination 4500 lux, listed as adipate crystal form A): 100%; Solubility in FeSSIF [3, 6]: 11600 µg/mL (≈ 23.7 mM)
CC1=Nc2c(F)cc(-c3nc(Nc4ccc(C5CCN(C)CC5)cn4)ncc3F)cc2C12CCCC2 [Free base crystal form A, 5-fluoro-4-(7′-fluoro-2′-methylspiro[cyclopentane-1,3′-indol]-5′-yl)-N-(5-(1-methylpiperidin-4-yl)pyridin-2-yl)pyrimidine-2-amine, reference compound]	0.10	No change	100.0	100.0	99.9	99.92	99.3	99.28	100.00	190 (≈ 0.389 mM)	75 (≈ 0.154 mM)	10200 (≈ 20.9 mM)		solubility [4]: 75 µg/mL (≈ 0.154 mM); HPLC purity 1 week Relative to the initial purity ([2]; Light illumination 4500 lux, listed as free base crystal form A): 99.3%
CC1=Nc2c(F)cc(-c3nc(Nc4ccc(C5CCN(C)CC5)cn4)ncc3F)cc2C12CCCC2.O=C(O)/C=C/C(=O)O [Fumarate crystal form A, Fumarate of 5-fluoro-4-(7′-fluoro-2′-methylspiro[cyclopentane-1,3′-indol]-5′-yl)-N-(5-(1-methylpiperidin-4-yl)pyridin-2-yl)pyrimidine-2-amine]	0.35	No change	100.0	99.89	100.0	99.88	100.0	99.89	99.92		6300	8000	7600	Whether the crystal form has a change ([1]; listed as fumarate crystal form A): no change; HPLC purity 1 week Relative to the initial purity ([2]; 40° C./75% RH, listed as fumarate crystal form A): 100%; HPLC purity 1 week Relative to the initial purity ([2]; Light illumination 4500 lux, listed as fumarate crystal form A): 100%
CC1=Nc2c(F)cc(-c3nc(Nc4ccc(C5CCN(C)CC5)cn4)ncc3F)cc2C12CCCC2.O=C(O)/C=C/C(=O)O [Fumarate crystal form C, Fumarate of 5-fluoro-4-(7′-fluoro-2′-methylspiro[cyclopentane-1,3′-indol]-5′-yl)-N-(5-(1-methylpiperidin-4-yl)pyridin-2-yl)pyrimidine-2-amine]			100.0	99.48	100.0	99.48	100.0	99.46	99.48	5900	480			HPLC purity 1 week Relative to the initial purity ([2]; 40° C./75% RH, listed as fumarate crystal form C): 100%; HPLC purity 1 week Relative to the initial purity ([2]; Light illumination 4500 lux, listed as fumarate crystal form C): 100%; Solubility in FeSSIF [3, 6]: 13600 µg/mL
CC1=Nc2c(F)cc(-c3nc(Nc4ccc(C5CCN(C)CC5)cn4)ncc3F)cc2C12CCCC2.Cl [Hydrochloride crystal form B, Hydrochloride of 5-fluoro-4-(7′-fluoro-2′-methylspiro[cyclopentane-1,3′-indol]-5′-yl)-N-(5-(1-methylpiperidin-4-yl)pyridin-2-yl)pyrimidine-2-amine, reference compound]	9.12	Change												Whether the crystal form has a change ([1]; listed as hydrochloride crystal form B): changed to amorphous
CC1=Nc2c(F)cc(-c3nc(Nc4ccc(C5CCN(C)CC5)cn4)ncc3F)cc2C12CCCC2.O=C(O)/C=C\C(=O)O [Maleate crystal form B, Maleate of 5-fluoro-4-(7′-fluoro-2′-methylspiro[cyclopentane-1,3′-indol]-5′-yl)-N-(5-(1-methylpiperidin-4-yl)pyridin-2-yl)pyrimidine-2-amine]	2.00	No change	100.0	99.88	100.0	99.89	99.9	99.83	99.91			7800	7100	Whether the crystal form has a change ([1]; listed as maleate crystal form B): no change; HPLC purity 1 week Relative to the initial purity ([2]; 40° C./75% RH, listed as maleate crystal form B): 100%; solubility at 24 h [3, 9]: 12900 µg/mL
CC1=Nc2c(F)cc(-c3nc(Nc4ccc(C5CCN(C)CC5)cn4)ncc3F)cc2C12CCCC2.CS(=O)(=O)O [Methanesulfonate crystal form A, Methanesulfonate of 5-fluoro-4-(7′-fluoro-2′-methylspiro[cyclopentane-1,3′-indol]-5′-yl)-N-(5-(1-methylpiperidin-4-yl)pyridin-2-yl)pyrimidine-2-amine, reference compound]	12.02	Change	99.9	99.73	99.4	99.16	98.5	98.28	99.81					Whether the crystal form has a change ([1]; listed as methanesulfonate crystal form A): changed to amorphous
CC1=Nc2c(F)cc(-c3nc(Nc4ccc(C5CCN(C)CC5)cn4)ncc3F)cc2C12CCCC2.O=C(O)CCC(=O)O [Succinate crystal form A, Succinate of 5-fluoro-4-(7′-fluoro-2′-methylspiro[cyclopentane-1,3′-indol]-5′-yl)-N-(5-(1-methylpiperidin-4-yl)pyridin-2-yl)pyrimidine-2-amine]	0.33	No change	100.0	99.90	100.00	99.90	100.0	99.90	99.94			10700	6400	Whether the crystal form has a change ([1]; listed as succinate crystal form A): no change; HPLC purity 1 week Relative to the initial purity ([2]; 40° C./75% RH, listed as succinate crystal form A): 100%; HPLC purity 1 week Relative to the initial purity ([2]; Light illumination 4500 lux, listed as succinate crystal form A): 100%; solubility at 24 h [3, 9]: 7500 µg/mL
